Usually MIC stands for the lowest concentration found to suppress growth. The term IC50 denotes the concentration that gives 50% inhibition. High values mean lower potency, low ones higher potency.

Values after ≈ are worked out from the molar mass of the structure shown. Some results are limits rather than exact numbers.

For one data set, the system named is Staphylococcus aureus. The data set can be described thus: Antibacterial activity against vancomycin-intermediate resistant Staphylococcus aureus ATCC 700699/Mu50 assessed as reduction in bacterial growth incubated for 24 hrs by broth microdilution method. The class given is functional. (In general: Dilution methods test growth across graded concentrations, often in twofold steps.)

The next data set has as its system Streptococcus pyogenes. The data set can be described thus: Antibacterial activity against Streptococcus pyogenes ATCC 12204 assessed as reduction in bacterial growth incubated for 24 hrs by broth microdilution method. The class given is functional.
The next data set deals with Enterococcus faecium. The data set can be described thus: Antibacterial activity against clinical isolate Enterococcus faecium assessed as reduction in bacterial growth incubated for 24 hrs by broth microdilution method. The class given is functional.
A further data set relates to NCI-H1299. The experiment in a line: Cytotoxicity against human NCI-H1299 cells measured after 72 hrs by SRB assay. It is filed as functional, cell-based. The conditions noted are these: NCI-H1299, 72 h. Background: Sulforhodamine B stains cellular protein and so reports cell mass.
Another data set has as its system NCI-H1975. The data set can be described thus: Cytotoxicity against human NCI-H1975 cells measured after 72 hrs by SRB assay. It is filed as functional, cell-based. The conditions noted are these: NCI-H1975, 72 h.
The nature of data set [1]: Toxicity in Galleria mellonella larvae assessed as reduction in animal survival […]. The class given is organism-based. The note with it: in vivo, 80 h.

For `O=C(c1cc(Cl)c(Cl)[nH]1)c1cc(Cl)cc(Cl)c1O`, the MIC with Staphylococcus aureus was no more than 0.125 µg/mL; with Streptococcus pyogenes, no more than 0.125 µg/mL; with Enterococcus faecium, 0.5 µg/mL (≈ 1.54 µM). The values for the half-inhibitory concentration (IC50) in the data set on NCI-H1299 and with NCI-H1975 were 0.82 µg/mL (≈ 2.52 µM) and 0.59 µg/mL (≈ 1.82 µM), respectively. Besides, the Activity result in data set [1] was “Toxic”.
